Results: paper PMC9643456, “Matching amino acids membrane preference profile to improve activity of antimicrobial peptides” (Communications Biology, 2022)
In brackets after ≈: the same amount, converted by molar mass. Square brackets hold non-standard residues; d marks the D form. Ends that are not written are not given here. Peptide text beside a SMILES is read from it.

Legend:
MDR A. baumannii = experiment: microbe, parasite or virus in culture; details: CLSI broth microdilution; CAMHB with 50 mg/L Ca2+, 10 mg/L Mg2+; 5 × 10^5 CFU/ml; 18 h 37 °C; triplicate; strain ATCC BAA-1605
Excerpt: (§1) MDR Pseudomonas aeruginosa (CCARM 2180) was purchased from the Culture Collection of Antimicrobial Resistance Microbes (Seoul, Republic of Korea). MDR Acinetobacter baumannii (ATCC BAA-1605) and MDR Enterococcus faecalis (ATCC 51575) were purchased from the American Type Culture Collection (Manassas, VA, USA). MDR Staphylococcus aureus (KCCM 40510) was purchased from the Korean Culture Center of Microorganisms (Seoul, Republic of Korea). S. aureus (KCTC 1621) was purchased from the Korean Collection for Type Cultures. A. baumannii (KCCM 40203) was purchased from the Korean Culture Center of Microorganisms (Seoul, Republic of Korea).
(§2) To assess antimicrobial activity, the MIC50 and MIC90 were measured using broth microdilution following CLSI guidelines. […] Each experiment was performed in triplicate. Meropenem (Sigma, Darmstadt, Germany) and colistin were used as control antibiotics. Cation-adjusted Mueller–Hinton broth (CAMHB) (Becton, Dickinson and Company, Franklin Lakes, USA) with supplied calcium (50 mg/L) and magnesium (10 mg/L) was used for the CLSI-test condition. Bacteria in midlog phase and peptides were separately diluted in CAMHB. The bacteria and peptide solutions were then mixed in 96-well polyethylene plates (SPL, Gyeonggi-do, Korea) and incubated for 18 h at 37 °C. The final concentration for bacteria was 5 × 10^5 CFU/ml. […] The MIC was defined to be the lowest concentration of peptide without visible turbidity by comparing with control antibiotics with the unaided eye. […] Each experiment was performed in triplicate. MICs in albumin and acetic acid solutions were measured using the same protocol but with 0.2% bovine serum albumin (Bovogen, Keilor, Australia), 0.01% acetic acid (Merck, New Jersey, USA), and CAMHB with both calcium and magnesium. In addition, MICs used in the antibiotic resistance acquisition test, the outer–inner membrane permeation test, and the transmembrane potential test and for FE-SEM were individually determined. The final bacterial concentrations used were as follows: for resistance acquisition, optical density (OD) 0.01; for outer–inner membrane permeability assays (LB), OD 0.1; for the transmembrane potential test, 1 × 10^8 CFU/ml (OD 0.171); […]. Inhibitory activity unidentifiable by direct observation was determined by counting the CFUs. Each experiment was performed at least twice.

MDR S. aureus = experiment: microbe, parasite or virus in culture; details: CLSI broth microdilution; CAMHB with 50 mg/L Ca2+, 10 mg/L Mg2+; 5 × 10^5 CFU/ml; 18 h 37 °C; triplicate; strain KCCM 40510
Excerpt: as §1, §2

human red blood cells = experiment: Hemolytic activity; assay type: cell-based; details: red cells of human, 18 h
Procedure: Human red blood cells (Zenbio, North Carolina, USA) and peptides were separately diluted in PBS (blood concentration, 8%). The blood cell and peptide solutions were then mixed in 96-well polyethylene plates (SPL, Gyeonggi-do, Korea) and incubated for 18 h at 37 °C. The final concentration of human red blood cells was 4%, while peptide concentrations were 100 μM, 50 μM, 25 μM, 12.5 μM, 6.25 μM, 3.13 μM, 1.56 μM, and 0.78 μM. After incubation, the plates were centrifuged at 1000 × g for 5 min, and the supernatants were transferred to 96-well polyethylene plates. Hemolysis levels were determined by measuring the absorbance at 540 nm with a SpectraMax plate spectrophotometer (Molecular Devices, California, USA). Control samples were treated with 1% Triton X-100 (for 100% hemolysis) or solution with 0 μM peptide (for 0% hemolysis) and melittin (for positive control). Each experiment was performed in triplicate.

Row | Compound | Minimum inhibitory concentrations, MDR A. baumannii (MDR A. baumannii) | Minimum inhibitory concentrations, MDR S. aureus (MDR S. aureus) | Hemolysis percent, 25 μM (human red blood cells) | Hemolysis percent, 50 μM (human red blood cells) | Hemolysis percent, 100 μM (human red blood cells)
1 | CC(C)[C@@H](NC(=O)[C@H](N)Cc1c[nH]c2ccccc12)C(=O)N[C@@H](C(=O)N[C@@H](C(=O)N[C@@H](C(=O)N[C@H](Cc1c[nH]c2ccccc12)C(=O)N[C@H](CCCNC(=N)N)C(=O)N[C@H](CCCNC(=N)N)C(=O)N[C@H](CCCNC(=N)N)C(N)=O)C(C)C)C(C)C)C(C)C [WCopW44] (H-[dW][dV][dV][dV][dV][dW][dR][dR][dR]-NH2) | 2.5 µM (≈ 3.14 µg/mL) | 1.25 µM (≈ 1.57 µg/mL) | 0.11 ±0.03% | 0.87 ±0.36% | 4.48 ±1.01%
2 | CC(C)C[C@@H](NC(=O)[C@H](N)Cc1c[nH]c2ccccc12)C(=O)N[C@@H](C(=O)N[C@H](Cc1c[nH]c2ccccc12)C(=O)N[C@@H](C(=O)N[C@H](Cc1ccc(O)cc1)C(=O)N[C@H](CC(C)C)C(=O)N[C@H](CCCNC(=N)N)C(=O)N[C@H](CCCCN)C(=O)N[C@H](CCCCN)C(=O)N[C@H](CCCNC(=N)N)C(N)=O)C(C)C)C(C)C [WCopWVY2] (H-[dW][dL][dV][dW][dV][dY][dL][dR][dK][dK][dR]-NH2) | – | – | 3.46% | 6.02% | 10.12%
3 | CC[C@@H](C)[C@@H](NC(=O)[C@@H](Cc1c[nH]c2ccccc12)NC(=O)[C@H](NC(=O)[C@@H](CC(C)C)NC(=O)[C@H](N)Cc1c[nH]c2ccccc12)C(C)C)C(=O)N[C@H](Cc1ccc(O)cc1)C(=O)N[C@@H](C(=O)N[C@H](CCCNC(=N)N)C(=O)N[C@H](CCCCN)C(=O)N[C@H](CCCCN)C(=O)N[C@H](CCCNC(=N)N)C(N)=O)C(C)C [WCopWVY3] (H-[dW][dL][dV][dW][dI][dY][dV][dR][dK][dK][dR]-NH2) | – | – | 1.92% | 5.67% | 7.01%
4 | CC[C@@H](C)[C@@H](NC(=O)[C@@H](Cc1c[nH]c2ccccc12)NC(=O)[C@H](NC(=O)[C@@H](CC(C)C)NC(=O)[C@H](N)Cc1c[nH]c2ccccc12)C(C)C)C(=O)N[C@H](Cc1ccc(O)cc1)C(=O)N[C@H](CCCNC(=N)N)C(=O)N[C@H](CCCCN)C(=O)N[C@H](CCCCN)C(=O)N[C@H](CCCNC(=N)N)C(N)=O [WCopWVY4] (H-[dW][dL][dV][dW][dI][dY][dR][dK][dK][dR]-NH2) | – | – | 1.86% | 2.57% | 5.57%
5 | CC[C@@H](C)[C@@H](NC(=O)[C@@H](Cc1c[nH]c2ccccc12)NC(=O)[C@H](NC(=O)[C@@H](CC(C)C)NC(=O)[C@H](N)Cc1c[nH]c2ccccc12)C(C)C)C(=O)N[C@H](Cc1ccc(O)cc1)C(=O)N[C@H](CC(C)C)C(=O)N[C@H](CCCNC(=N)N)C(=O)N[C@H](CCCCN)C(=O)N[C@H](CCCCN)C(=O)N[C@H](CCCNC(=N)N)C(N)=O [WCopWVY] (H-[dW][dL][dV][dW][dI][dY][dL][dR][dK][dK][dR]-NH2) | – | – | 2.47% | 4.51% | 7.25%
6 | CC[C@@H](C)[C@@H](NC(=O)[C@@H](Cc1c[nH]c2ccccc12)NC(=O)[C@@H](Cc1ccc(O)cc1)NC(=O)[C@@H](CC(C)C)NC(=O)[C@H](N)Cc1c[nH]c2ccccc12)C(=O)N[C@H](CC(C)C)C(=O)N[C@H](CC(C)C)C(=O)N[C@H](CCCNC(=N)N)C(=O)N[C@H](CCCCN)C(=O)N[C@H](CCCCN)C(=O)N[C@H](CCCNC(=N)N)C(N)=O [WCopWYL] (H-[dW][dL][dY][dW][dI][dL][dL][dR][dK][dK][dR]-NH2) | – | – | 2.50% | 6.29% | 9.62%
7 | WLLWIALRKKR-NH2 [WCopW2] | – | – | 8.19% | 11.43% | 23.10%
